Reference: article PMC6132986, “Assessing the toxicity of thiamethoxam, in natural LUFA 2.2 soil, through three generations of Folsomia candida” (Ecotoxicology (London, England), 2018)
Where “and” joins values, the source holds several entries; their conditions need not be identical. Identical values can stand only once. Like-named read-outs stand apart in the source and are kept apart here.

Legend:
[1] = pH 7, 20°C; ref Jeschke et al. [2011]; cited from earlier work
[2] = Chemical analysis (LC-MSMS) and degradation of thiamethoxam in LUFA 2.2 soil; assay type: physicochemical
Method: The samples were analysed for thiamethoxam by the commercial certified analytical laboratory Groen Agro Control in Delfgauw, The Netherlands, using LC-MSMS. Detection limit was 0.01 mg/kg dry soil.
Using data on the measured concentrations of thiamethoxam, half-life (DT50) values were estimated assuming first order degradation kinetics. The equation C = C0 × e^−k×t was fitted to the data, with C = concentration at time t in days, C0 is concentration at t = 0 and k = degradation rate constant (day^−1). DT50 was derived as ln(2)/k.

[3] = test system: Folsomia candida; assay: Folsomia candida multigeneration (P, F1, F2) survival and reproduction test in freshly spiked LUFA 2.2 soil; assay type: in vivo; details: nominal concentrations
Method: All tests were performed using natural standard LUFA 2.2 soil (LUFA Speyer, Germany), having approximately 1.6% organic carbon, water holding capacity (WHC) of 45%, and soil pH (0.01 M CaCl2) measured in a preliminary test, ranging between 5.03 and 5.87.
Stock solutions of both compounds were prepared in milli-Q water in order to spike the chemicals in the test soil and at the same time bring its moisture content to 50% of the water holding capacity (WHC). The concentration range used for both compounds was: Control −0.04 −0.12 −0.37 −1.1 −3.3 −10 mg a.s./kg dry soil. Due to the toxic effect of the neonicotinoids, the three highest concentrations had to be dropped for F1 and F2 generations. Tests were performed in 100 ml glass jars, containing 30 g moist soil, using five replicate test jars with animals, and two replicates containing approximately 15 g of soil each, without animals (soil analysis). All the test jars were weighed at the start of the test, so the water loss could be checked and replenished, if needed, on a weekly basis.
Folsomia candida Willem 1902 is a cosmopolitan arthropod, belonging to the Collembola order, which is phylogenetically related to the Insecta. The family Isotomidae have a ventral tube or collophore which is involved in the exchange of fluids with the external environment, being an important route of exposure to contaminants present in the pore water. Sexual maturity of F. candida is achieved between 21 to 24 days after hatching (sixth instar), and each individual can lay about 30 to 50 eggs per batch (Fountain and Hopkin [2005]). Adults of this species were taken from cultures at the Department of Ecological Science at the Vrije Universiteit in Amsterdam. In order to obtain synchronized animals, adults were transferred from the culture to 125 ml translucent plastic boxes with a 2 cm layer of plaster of Paris and activated charcoal (8:1), moistened with water, and left for a period of 2–3 days to lay eggs, after which they were removed. The eggs were incubated under a 12 h light/12 h dark regime at 20°C and 75% relative humidity, where they hatched. Juveniles of 10–12 days old were used for starting the test for the parental (P) generation.
Ten age-synchronized animals (10–12 days old) were added to the replicate test jars in generation P. For generations F1 and F2 the age of the animals transferred was around 8–9 days. […] The same procedure was performed for ending the tests with the F1 (after 35–36 days) and F2 (28 days) generations. At the end of the tests, the jars were flooded with water to allow the animals to float and being photographed using a Nikon COOLPIX P510 camera. The images were analysed using the software ImageJ, a Java-based processing program adjusted for counting the animals. For the P and F1 generations, only the juveniles produced in all replicates of each concentration were transferred, using a sieve, to a single container with a plaster of Paris bottom, and left overnight in a climate room, at 20 ± 2 °C, with a 75% relative humidity and a photoperiod of 16:8 h […]. On the following day, batches of 10 randomly selected animals were transferred to jars, with their respective concentration, filled with soil freshly spiked, and covered with an opaque black plastic lid, loosely attached to the rim to allow for aeration. At the start and every week a few grains of dry baker’s yeast (Instant yeast from Algist Bruggeman N.V, Ghent, Belgium) and water were added to the test vessels if needed.
All the dose-response data was analysed using the package “drc”(dose response curve) in the software R, using a general model fitting function–drm, with the option for model select (Ritz and Streibig [2005]). The endpoints LC50, addressing the effects on adult survival, and ECx, addressing sub-lethal effects on the juvenile population were expressed on the basis of nominal soil concentrations.

[4] = cited from earlier work
[5] = test system: Folsomia candida; details: cited from earlier work
[6] = F1 generation, 35-36 days exposure
[7] = F1 generation, 35-36 days exposure, listed as pure thiamethoxam
[8] = F2 generation, 28 days exposure
[9] = F2 generation, 28 days exposure, listed as pure thiamethoxam
[10] = LUFA 2.2 soil, ref De Lima e Silva et al. [2017], van Gestel et al. [2017]
[11] = Lufa 2.2 soil, ref de Lima e Silva et al. [2017]
[12] = Lufa 2.2 soil, ref van Gestel et al. [2017]
[13] = sphagnum peat (10%), kaolinite clay (20%), quartz sand (70%), ref Reynolds [2008]

CN1COCN(Cc2cnc(Cl)s2)/C1=N\[N+](=O)[O-] [Thiamethoxam Pure, thiamethoxam]
Log KOW [1]: −0.13
octanol-water partition coefficient [1]: 0.741
half-life ([2]; LUFA 2.2 soil, average over nominal 0.12-1.1 mg/kg dry soil, read-out: DT50 (half-life in soil), average (converted)): 139 days
DT50 (half-life in soil), range over the concentrations ([2]; LUFA 2.2 soil, nominal 0.12-1.1 mg/kg dry soil): 112 to 165 days
half-life ([2]; LUFA 2.2 soil, nominal 0.12-1.1 mg/kg dry soil, read-out: DT50 (half-life in soil), range over the concentrations): 112 to 156 days
Concentration in soil as % of the nominal ([2]; first day of the experiment (t = 0), pure and Actara treatments together): 75–100%
half-life at 0.12 mg/kg dry soil ([2]; nominal 0.12 mg/kg dry soil, LUFA 2.2 soil, first order degradation kinetics, read-out: DT50 (half-life in soil) (converted)): 165 days
half-life at 0.37 mg/kg dry soil ([2]; nominal 0.37 mg/kg dry soil, LUFA 2.2 soil, first order degradation kinetics, read-out: DT50 (half-life in soil) (converted)): 140 days
half-life at 1.1 mg/kg dry soil ([2]; nominal 1.1 mg/kg dry soil, LUFA 2.2 soil, first order degradation kinetics, read-out: DT50 (half-life in soil) (converted)): 112 days
Recovery Rate ([2]; t = 0, nominal 0.12 mg/kg dry soil): 75%
Measured Concentration of thiamethoxam in soil ([2]; t = 0, nominal 0.12 mg/kg dry soil, LUFA 2.2 soil): 0.09 mg/kg dry soil
Recovery Rate ([2]; t = 0, nominal 0.37 mg/kg dry soil): 84%
Measured Concentration of thiamethoxam in soil ([2]; t = 0, nominal 0.37 mg/kg dry soil, LUFA 2.2 soil): 0.31 mg/kg dry soil
Recovery Rate ([2]; t = 0, nominal 1.1 mg/kg dry soil): 85%
Measured Concentration of thiamethoxam in soil ([2]; t = 0, nominal 1.1 mg/kg dry soil, LUFA 2.2 soil): 0.94 mg/kg dry soil
Recovery Rate ([2]; t = 28 days, nominal 0.12 mg/kg dry soil): 66%
Measured Concentration of thiamethoxam in soil ([2]; t = 28 days, nominal 0.12 mg/kg dry soil, LUFA 2.2 soil): 0.08 mg/kg dry soil
Measured Concentration of thiamethoxam in soil ([2]; t = 28 days, nominal 0.37 mg/kg dry soil, LUFA 2.2 soil): 0.27 mg/kg dry soil
Recovery Rate ([2]; t = 28 days, nominal 1.1 mg/kg dry soil): 72%
Measured Concentration of thiamethoxam in soil ([2]; t = 28 days, nominal 1.1 mg/kg dry soil, LUFA 2.2 soil): 0.79 mg/kg dry soil
EC50 (reproduction) [3, 6]: 0.23 (0–0.52) mg a.s./kg dry soil
LC50 (adult survival) [3, 6]: >0.37 mg a.s./kg dry soil
EC50 (reproduction) [3, 7]: 0.23 mg a.s./kg dry soil
LC50 (adult survival) [3, 7]: > 0.37 mg a.s./kg dry soil
EC10 (reproduction) ([3]; F1 generation): 0.06 (0–0.14) mg a.s./kg dry soil
EC20 (reproduction) ([3]; F1 generation): 0.09 (0–0.20) mg a.s./kg dry soil
EC50 (reproduction) [3, 8]: 0.30 (0.09–0.50) mg a.s./kg dry soil
LC50 (adult survival) [3, 8]: >0.37 mg a.s./kg dry soil
EC50 (reproduction) [3, 9]: 0.30 mg a.s./kg dry soil
LC50 (adult survival) [3, 9]: > 0.37 mg a.s./kg dry soil
EC10 (reproduction) ([3]; F2 generation): 0.15 (0–0.64) mg a.s./kg dry soil
EC20 (reproduction) ([3]; F2 generation): 0.20 (0–0.63) mg a.s./kg dry soil
EC50 (reproduction) ([3]; Parental generation, 28 days exposure (Actara 27 days)): 0.23 (0.20–0.30) mg a.s./kg dry soil
LC50 (adult survival) ([3]; Parental generation, 28 days exposure (Actara 27 days), 95% CI in brackets): 0.32 (0.30–0.40) mg a.s./kg dry soil
LC50 (adult survival) ([3]; Parental generation, 28 days exposure (Actara 27 days), 95% CI in brackets, listed as pure thiamethoxam): 0.32–0.35 mg a.s./kg dry soil and 0.32 mg a.s./kg dry soil
EC50 (reproduction) ([3]; Parental generation, 28 days exposure (Actara 27 days), listed as pure thiamethoxam): 0.23–0.25 mg a.s./kg dry soil
EC10 (reproduction) ([3]; Parental generation): 0.07 (0.03–0.10) mg a.s./kg dry soil
EC20 (reproduction) ([3]; Parental generation): 0.12 (0.070–0.20) mg a.s./kg dry soil
half-life in soil ([4]; ref Bonmatin et al. [2015]): ≤ 355 days

N#C/N=C1\SCCN1Cc1ccc(Cl)nc1 [thiacloprid]
half-life in soil ([4]; ref Van Gestel et al. [2017]): 10 to 12 days

O=[N+]([O-])NC1=NCCN1Cc1ccc(Cl)nc1 [Imidacloprid, imidacloprid]
EC50 [5, 10]: 0.26–0.29 mg a.s./kg dry soil
LC50 [5, 10]: 0.44–0.47 mg a.s./kg dry soil
EC50 [5, 11]: 0.26 mg a.s./kg
LC50 [5, 11]: 0.47 mg a.s./kg
EC50 [5, 12]: 0.29 mg a.s./kg
LC50 [5, 12]: 0.44 mg a.s./kg
EC50 [5, 13]: 0.26 mg a.s./kg
LC50 [5, 13]: 0.86 mg a.s./kg
